Reference: patent publication US10851082B2, “Substituted aromatic n-heterocyclic compounds as inhibitors of mitogen-activated protein kinase interacting kinase 1 (MNK1) and 2 (MNK2)” (Northwestern University, priority 2015, dated 2020)
Read-outs that look alike come from different tables or passages of the source. Each block holds one molecule with its values, some of them ahead of it.

Key:
[1] = target: Mnk1 (Homo sapiens (Human), UniProt Q9BUB5); assay: Mnk1 kinase inhibition, ADP-Glo ADP monitoring assay; type: biochemical
Method: (§1) The synthesized compounds then were tested for inhibition of the kinase activity (IC50) of Mnk1 and/or Mnk2 using the ADP monitoring assay for kinases described in Zegzouti, H.; Zdanovskaia, M.; Hsiao, K.; Goueli, S. A., ADP-Glo: A Bioluminescent and homogeneous ADP monitoring assay for kinases.

[2] = target: Mnk2 (Homo sapiens (Human), UniProt Q9HBH9); assay: Mnk2 kinase inhibition, ADP-Glo ADP monitoring assay; type: biochemical
Method: as §1

[3] = ADP-Glo kinase assay, read-out: Mnk2 IC50
[4] = read-out: Mnk1 inhibition IC50 (+,++,+++)
[5] = ADP-Glo kinase assay, read-out: Mnk2 inhibition IC50 (+,++,+++)

Mnk1, sequence (Q9BUB5 whole entry): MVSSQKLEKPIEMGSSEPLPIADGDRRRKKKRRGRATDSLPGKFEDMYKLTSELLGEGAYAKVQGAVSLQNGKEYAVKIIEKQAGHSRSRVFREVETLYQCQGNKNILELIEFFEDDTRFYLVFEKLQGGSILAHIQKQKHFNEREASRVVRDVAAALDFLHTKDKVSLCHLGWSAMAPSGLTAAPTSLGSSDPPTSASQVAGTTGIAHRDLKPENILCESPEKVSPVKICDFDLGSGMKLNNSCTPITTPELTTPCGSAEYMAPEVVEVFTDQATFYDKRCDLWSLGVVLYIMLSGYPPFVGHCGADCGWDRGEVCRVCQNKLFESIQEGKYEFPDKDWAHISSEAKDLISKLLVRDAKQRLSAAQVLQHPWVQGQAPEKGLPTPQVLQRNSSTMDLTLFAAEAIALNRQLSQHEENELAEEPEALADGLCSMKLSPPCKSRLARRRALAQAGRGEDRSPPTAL
Mnk2, sequence (Q9HBH9 whole entry): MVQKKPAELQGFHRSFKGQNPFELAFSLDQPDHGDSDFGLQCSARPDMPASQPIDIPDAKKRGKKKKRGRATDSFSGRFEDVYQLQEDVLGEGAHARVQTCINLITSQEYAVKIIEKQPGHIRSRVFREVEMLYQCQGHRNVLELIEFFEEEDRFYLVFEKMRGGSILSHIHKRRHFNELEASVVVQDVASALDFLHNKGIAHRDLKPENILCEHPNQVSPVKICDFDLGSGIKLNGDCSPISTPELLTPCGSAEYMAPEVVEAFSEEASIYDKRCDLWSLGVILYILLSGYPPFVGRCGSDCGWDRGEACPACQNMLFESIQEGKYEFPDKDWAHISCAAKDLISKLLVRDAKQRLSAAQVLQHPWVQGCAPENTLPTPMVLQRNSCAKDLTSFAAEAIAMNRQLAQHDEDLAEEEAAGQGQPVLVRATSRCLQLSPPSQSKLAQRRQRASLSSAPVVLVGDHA

Compound: c1ccc2c(c1)CCN2c1ccnc(N[C@H]2CCOC2)n1 [NUCC-0176231]
IC50 ([1]; read-out: Mnk1 IC50): 1.1 µM
IC50 [2, 3]: 0.38 µM

IC50 [1, 4]: 1 to 10 µM
IC50 [2, 5]: < 1 µM
Compound: COC(=O)c1ccc2c(c1)ncn2-c1nc(NCCc2ccncc2)ncc1Cl [NUCC-0200799]

IC50 [1, 4]: 1 to 10 µM
IC50 [2, 5]: < 1 µM
Compound: N#Cc1cnc(Oc2cccnc2)nc1-n1cnc2ccccc21 [NUCC-0200794]

IC50 [1, 4]: 1 to 10 µM
IC50 [2, 5]: < 1 µM
Compound: O=C(O)C1CC(Oc2ncc(Cl)c(-n3cnc4ccccc43)n2)C1 (centres unmarked) [NUCC-0201891]

Mnk1 inhibition IC50 (+,++,+++) [1]: no activity
Mnk2 inhibition IC50 (+,++,+++) ([2]; ADP-Glo kinase assay): no activity
Compound: Fc1ccc2c(ncn2-c2nc(NCCc3ccncc3)ncc2Cl)c1F [NUCC-0200800]

IC50 ([1]; read-out: Mnk1 IC50): 8.5 µM
IC50 [2, 3]: 6 µM
Compound: c1cnc2ncn(-c3ccnc(NCCc4ccncc4)n3)c2c1 [NUCC-0176138]

IC50 ([1]; read-out: Mnk1 IC50): 6 µM
Compound: Clc1cccc(-n2cc(-c3ccnc(NCc4ccncc4)n3)cn2)c1 [NUCC-0054134]

IC50 [1, 4]: 1 to 10 µM
IC50 [2]: 1 to 10 µM
Compound: Clc1cnc(NC2CCC2)nc1-n1cnc2ccccc21 [NUCC-0201050]

IC50 [1, 4]: < 1 µM
IC50 [2, 5]: < 1 µM
Compound: N#Cc1cnc(Oc2ccc(Cl)cc2)nc1-n1cnc2ccccc21 [NUCC-0200787]

IC50 [1, 4]: 1 to 10 µM
IC50 [2, 5]: < 1 µM
Compound: Clc1cnc(OCCN2CCOCC2)nc1-n1cnc2ccccc21 [NUCC-0200806]

IC50 ([1]; read-out: Mnk1 IC50): 12 µM
Compound: COc1cccc(-n2cc(-c3ccnc(NCCN4CCOCC4)n3)cn2)c1 [NUCC-0054138]

IC50 ([1]; read-out: Mnk1 IC50): 9 µM
Compound: c1ccc2c(c1)ccn2-c1ccnc(NCCN2CCOCC2)n1 [NUCC-0060953]

IC50 [1, 4]: < 1 µM
IC50 [2, 5]: < 1 µM
Compound: Cc1ccc2c(c1)ncn2-c1ncc(Cl)c(NCCc2ccncc2)n1 [NUCC-0200909]

IC50 ([1]; read-out: Mnk1 IC50): 13 µM
IC50 [2, 3]: 5.3 µM
Compound: c1cnc2ncn(-c3ccnc(NC4CCOC4)n3)c2c1 (centres unmarked) [NUCC-0176142]

IC50 ([1]; read-out: Mnk1 IC50): 8.5 µM
IC50 [2, 3]: 2.5 µM
Compound: O=[N+]([O-])c1ccc(NCCNc2ccnc(-n3cnc4ccccc43)n2)nc1 [NUCC-0176366]

IC50 ([1]; read-out: Mnk1 IC50): 1.6 µM
IC50 [2, 3]: 1.3 µM
Compound: c1cc2c(cn1)ncn2-c1ccnc(NC2CCOC2)n1 (centres unmarked) [NUCC-0176152]

Mnk1 inhibition IC50 (+,++,+++) [1]: no activity
Mnk2 inhibition IC50 (+,++,+++) ([2]; ADP-Glo kinase assay): no activity
Compound: COc1ccc(Oc2ncc(Cl)c(-n3cnc4ccccc43)n2)cc1 [NUCC-0200809]

Compound: COC(=O)c1cnc(NCCc2ccncc2)nc1-n1cnc2ccccc21 [NUCC-0196309]
IC50 ([1]; unit inferred, read-out: Mnk1 IC50): > 10 µM
IC50 ([2]; ADP-Glo kinase assay, unit inferred, read-out: Mnk2 IC50): > 10 µM

IC50 ([1]; read-out: Mnk1 IC50): 19 µM
Compound: c1ccc(Cn2cc(-c3ccnc(NCCc4c[nH]cn4)n3)cn2)cc1 [NUCC-0060971]

IC50 ([1]; read-out: Mnk1 IC50): 6 µM
Compound: COc1cccc(-n2cc(-c3ccnc(NC4CCNCC4)n3)cn2)c1 [NUCC-0077164]

IC50 ([1]; read-out: Mnk1 IC50): 8 µM
Compound: COc1cccc(-n2cc(-c3ccnc(NCc4ccncc4)n3)cn2)c1 [NUCC-0077163]

IC50 ([1]; read-out: Mnk1 IC50): 19 µM
Compound: COc1cccc(-n2cc(-c3ccnc(Nc4ccncc4)n3)cn2)c1 [NUCC-0077168]

IC50 ([1]; read-out: Mnk1 IC50): 0.5 µM
Compound: CN1CCN(c2ccc(Nc3nccc(-n4cnc5ccccc54)n3)cc2)CC1 [NUCC-0125587]

IC50 ([1]; read-out: Mnk1 IC50): 1.4 µM
Compound: c1ccc2c(c1)ncn2-c1ccnc(NC2CCNCC2)n1 [NUCC-0125584]

IC50 ([1]; read-out: Mnk1 IC50): 4 µM
Compound: Cn1cc(-c2ccnc(NCCN3CCOCC3)n2)cn1 [NUCC-0060894]

IC50 ([1]; read-out: Mnk1 IC50): 0.2 µM
Compound: c1ccc2c(c1)ncn2-c1ccnc(Nc2ccc(N3CCCCC3)cc2)n1 [NUCC-0125588]

IC50 [2, 3]: 0.094 µM
Compound: c1ccc2c(c1)ncn2-c1ccnc(N[C@@H]2CCOC2)n1 [NUCC-0176149]

IC50 ([1]; read-out: Mnk1 IC50): 28 µM
Compound: COc1cccc(-n2cc(-c3ccnc(NCCCN4CCOCC4)n3)cn2)c1 [NUCC-0077154, 4-(1-(3-methoxyphenyl)-1H-pyrazol-4-yl)-N-(3-morpholinopropyl)pyrimidin-2-amine]

IC50 ([1]; read-out: Mnk1 IC50): 9 µM
Compound: CCNc1nccc(-c2cnn(-c3cccc(OC)c3)c2)n1 [NUCC-0054132]

IC50 ([1]; read-out: Mnk1 IC50): 70 µM
Compound: c1cc(CCNc2nccc(-c3cnn(CCN4CCOCC4)c3)n2)ccn1 [NUCC-0060970]

IC50 ([1]; read-out: Mnk1 IC50): 21 µM
Compound: COc1cccc(-n2cc(-c3ccnc(NCc4ccccc4)n3)cn2)c1 [NUCC-0077155]

IC50 ([1]; read-out: Mnk1 IC50): 30 µM
Compound: c1ccc(-n2cc(-c3ccnc(NCCc4c[nH]cn4)n3)cn2)cc1 [NUCC-0060965]

IC50 ([1]; read-out: Mnk1 IC50): 90 µM
Compound: c1cc(CNc2nccc(-c3cnn(C4CCOCC4)c3)n2)ccn1 [NUCC-0060959]

IC50 ([1]; read-out: Mnk1 IC50): 6 µM
Compound: O=C(c1ccc(Nc2nccc(-n3cnc4ccccc43)n2)cc1)N1CCNCC1 [NUCC-0125597]

IC50 ([1]; read-out: Mnk1 IC50): 4 µM
Compound: COc1cccc(-n2cc(-c3ccnc(NCCN(C)C)n3)cn2)c1 [NUCC-0077166]

IC50 ([1]; read-out: Mnk1 IC50): 9 µM
Compound: Cn1cc(-c2ccnc(NCc3ccc(F)cc3)n2)cn1 [NUCC-0060897]

IC50 [2, 5]: < 1 µM
Compound: N#Cc1cnc(-n2cnc3ccccc32)nc1NCCCc1ccncc1 [NUCC-0200914]

IC50 ([1]; read-out: Mnk1 IC50): 0.5 µM
Compound: c1ccc2c(c1)ncn2-c1ccnc(NCc2ccncc2)n1 [NUCC-0125586]
